# In patent US20230339889A1, “DERIVATIVES OF 2-OXO-N-(4-(PYRIMIDIN-4-YLOXY/THIO)PHENYL)-1,2-DIHYDROPYRIDINE-3-CARBOXAMIDE FOR USE AS PROTEIN KINASE INHIBITORS FOR THERAPY” (AUCENTRA THERAPEUTICS PTY LTD, priority 2020, published 2023):
# Biological target: T1, TYRO3 (Homo sapiens, UniProt Q06418)
# T1 construct: purchased Eurofins Discovery (Kinase Profiler service)
# T1 sequence (Q06418 41-890): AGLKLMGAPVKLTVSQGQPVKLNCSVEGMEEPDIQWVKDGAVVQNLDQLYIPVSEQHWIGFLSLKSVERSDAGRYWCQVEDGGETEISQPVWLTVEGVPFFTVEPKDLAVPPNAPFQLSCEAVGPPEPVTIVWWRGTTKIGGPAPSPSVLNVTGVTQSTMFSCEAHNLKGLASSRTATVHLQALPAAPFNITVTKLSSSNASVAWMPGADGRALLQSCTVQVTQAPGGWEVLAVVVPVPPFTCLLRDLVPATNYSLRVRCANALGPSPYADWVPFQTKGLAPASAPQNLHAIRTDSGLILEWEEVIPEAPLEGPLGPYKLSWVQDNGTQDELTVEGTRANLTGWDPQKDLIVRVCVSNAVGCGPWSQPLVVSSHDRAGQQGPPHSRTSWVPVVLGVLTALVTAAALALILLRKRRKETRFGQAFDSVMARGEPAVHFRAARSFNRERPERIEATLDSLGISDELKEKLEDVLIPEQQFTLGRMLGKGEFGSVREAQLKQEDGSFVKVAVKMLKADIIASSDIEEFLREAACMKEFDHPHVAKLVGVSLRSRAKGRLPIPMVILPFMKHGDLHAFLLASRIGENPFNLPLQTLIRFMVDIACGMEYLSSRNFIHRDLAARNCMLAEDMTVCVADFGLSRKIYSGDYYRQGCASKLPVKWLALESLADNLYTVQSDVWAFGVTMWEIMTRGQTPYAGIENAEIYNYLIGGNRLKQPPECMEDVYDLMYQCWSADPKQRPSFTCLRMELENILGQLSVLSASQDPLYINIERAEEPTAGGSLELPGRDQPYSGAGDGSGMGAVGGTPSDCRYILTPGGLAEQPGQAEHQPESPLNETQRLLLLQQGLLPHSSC
# Experiment: Filter-binding radiometric kinase activity assay (KinaseProfiler, Eurofins)
# Assay type: biochemical
# Conditions: 1 µM compound; read-out: % Residual enzymatic activity at 1 µM TYRO3
row,SMILES,remaining activity at 1 µM
1,"Nc1ncnc(Oc2ccc(NC(=O)c3cccn(-c4ccc(F)cc4)c3=O)cc2)c1Cl [Cmpd 4, N-(4-((6-amino-5-chloropyrimidin-4-yl)oxy)phenyl)-1-(4-fluorophenyl)-2-oxo-1,2-dihydropyridine-3-carboxamide]",2%
2,"Nc1ncnc(Oc2ccc(NC(=O)c3cccn(-c4ccc(F)cc4)c3=O)cc2F)c1F [Cmpd 1, N-(4-((6-amino-5-fluoropyrimidin-4-yl)oxy)-3-fluorophenyl)-1-(4-fluorophenyl)-2-oxo-1,2-dihydropyridine-3-carboxamide]",-1%
3,"Nc1ncnc(Oc2ccc(NC(=O)c3cccn(-c4ccc(F)cc4)c3=O)c(F)c2)c1F [Cmpd 7, N-(4-((6-amino-5-fluoropyrimidin-4-yl)oxy)-2-fluorophenyl)-1-(4-fluorophenyl)-2-oxo-1,2-dihydropyridine-3-carboxamide]",5%

# Next, values leading:
row,remaining activity at 1 µM,SMILES
1,2%,"Nc1ncnc(Oc2ccc(NC(=O)c3cccn(-c4ccc(F)cc4)c3=O)c(F)c2)c1Cl [Cmpd 5, N-(4-((6-amino-5-chloropyrimidin-4-yl)oxy)-2-fluorophenyl)-1-(4-fluorophenyl)-2-oxo-1,2-dihydropyridine-3-carboxamide]"
2,0%,"Nc1ncnc(Oc2ccc(NC(=O)c3cccn(-c4ccc(F)cc4)c3=O)cc2F)c1Cl [Cmpd 3, N-(4-((6-amino-5-chloropyrimidin-4-yl)oxy)-3-fluorophenyl)-1-(4-fluorophenyl)-2-oxo-1,2-dihydropyridine-3-carboxamide]"
3,6%,"Nc1ncnc(Oc2ccc(NC(=O)c3cccn(-c4ccc(F)cc4)c3=O)cc2)c1F [Cmpd 6, N-(4-((6-amino-5-fluoropyrimidin-4-yl)oxy)phenyl)-1-(4-fluorophenyl)-2-oxo-1,2-dihydropyridine-3-carboxamide]"
